The text below walks through data of ChEMBL document CHEMBL1126458, “Structurally novel antiarrhythmic / antioxidant quinazolines” (Bioorg Med Chem Lett, 1992).

Molecules are shown by their SMILES. ≈ marks a conversion by molar mass, not a printed value.

A word on the EC50: it is the midpoint of the concentration-response curve. A high value points to lower potency in that assay. A word on the MIC: it is the least concentration at which growth counts as inhibited. A high value points to a need for much substance.

For data set [1], the species on record is Canis familiaris. In words: Action potential amplitude at 10 uM concentration on Isolated Canine Purkinje Fibers was determined. It is filed as functional, Canis lupus familiaris, Purkinje fiber.
Data set [2] is filed under the species Canis familiaris. In words: Maximal rate of depolarization at 10 uM concentration on Isolated Canine Purkinje Fibers. It is filed as functional. Particulars: Canis lupus familiaris, Purkinje fiber; call rule not given here.
Data set [3] is filed under the species Canis familiaris. In words: Action potential duration at 50% of repolarization was determined at 10 uM concentration on Isolated Canine Purkinje Fibers. The class given is functional, Canis lupus familiaris, Purkinje fiber.
Data set [4] is filed under the species Canis familiaris. In words: Compound was evaluated for conduction time from stimulating to intracellular recording electrode at 10 uM concentration on Isolated Canine Purkinje Fibers. The class given is functional, Canis lupus familiaris, Purkinje fiber.
For data set [5], the species on record is Canis familiaris. In words: Action potential duration at 95% of repolarization was determined at 10 uM concentration on Isolated Canine Purkinje Fibers. It is filed as functional, Canis lupus familiaris, Purkinje fiber.
The species named for data set [6] is Canis familiaris. In words: Resting potential on Isolated Canine Purkinje Fibers at 10 uM concentration. It is filed as functional, Canis lupus familiaris, Purkinje fiber.
Data set [7] is filed under the species Homo sapiens. In words: Inhibition of C5a-induced luminol dependent chemiluminescence of human neutrophils. It is filed as functional.
The nature of data set [8]: Oxidation potential as carbon paste disc electrode against a Ag/AgCl reference electrode.
The next data set is filed under the species Oryctolagus cuniculus. In words: In vitro inhibition of iron-dependent peroxidation of rabbit brain vesicular membrane lipids. It is filed as functional.
The species named for data set [9] is Homo sapiens. In words: Inhibition of C5a-induced luminol dependent chemiluminescence of human neutrophils; NS - Not sufficiently soluble in saline for testing. The class given is functional.
The species named for data set [10] is Canis familiaris. In words: Maximal rate of depolarization at 100 uM concentration on Isolated Canine Purkinje Fibers. The class given is functional. Particulars: Canis lupus familiaris, Purkinje fiber.
The nature of data set [11]: Plasma concentration in dogs when measured 1 and 5 hours following initiation of reperfusion at 30 min. It is filed as ADME, organism-based, Canis lupus familiaris. Particulars: dog.
Data set [12] is filed under the species Canis familiaris. In words: Compound was evaluated for conduction time from stimulating to intracellular recording electrode at 100 uM concentration on Isolated Canine Purkinje Fibers. It is filed as functional, Canis lupus familiaris, Purkinje fiber.
A short description of data set [13]: Plasma concentration in dogs when measured 1 and 5 hours following initiation of reperfusion at 60 min. The class given is ADME, organism-based, Canis lupus familiaris. Particulars: dog.
A short description of data set [14]: Plasma concentration in dogs when measured 1 and 5 hours following initiation of reperfusion at 300 min. The class given is ADME, organism-based, Canis lupus familiaris. Particulars: dog.
The species named for data set [15] is Canis familiaris. In words: Resting potential on Isolated Canine Purkinje Fibers at 100 uM concentration. The class given is functional, Canis lupus familiaris, Purkinje fiber.
The species entered for data set [16] is Canis familiaris. In words: Action potential amplitude at 100 uM concentration on Isolated Canine Purkinje Fibers was determined. The class given is functional, Canis lupus familiaris, Purkinje fiber.
For data set [17], the species on record is Canis familiaris. In words: Action potential duration at 50% of repolarization was determined at 100 uM concentration on Isolated Canine Purkinje Fibers. It is filed as functional, Canis lupus familiaris, Purkinje fiber.
The species named for data set [18] is Homo sapiens. In words: Inhibition of C5a-induced luminol dependent chemiluminescence of human neutrophils; NA - compound found inactive at 10 uM. The class given is functional.

Compound `CCN(CC)c1nc(NCCNC(=O)c2ccc(C(F)(F)F)cc2)c2ccccc2n1.O=C(O)C(=O)O` had an APA in the data set filed under Canis familiaris [1] of -23 mV. The Vmax in the data set filed under Canis familiaris [2] was -62 V s-1. Besides, the APD50 in the data set filed under Canis familiaris [3] is -24 ms. In addition, the CT in the data set listed under Canis familiaris [4] amounted to 79 ms. This compound returned an APD95 in the data set listed under Canis familiaris [5] of 2 ms. For the same compound, in the data set listed under Canis familiaris [6], the RP is -7 mV.

`CCN(CC)c1nc(NCCNC(=O)c2cc(OC)c(O)c(OC)c2)c2ccccc2n1`: the EC50 in the data set listed under Homo sapiens [7] was 3.3 µM. In addition, in data set [8], the E1/2 worked out at 340 mV. In the data set filed under Oryctolagus cuniculus, this compound yielded an MIC greater than 100 µM.

For `CCN(CC)c1nc(NCCNC(=O)c2cc(O)c(OC)c(OC)c2)c2ccccc2n1.CS(=O)(=O)O`, in the data set filed under Homo sapiens [9], the EC50 entry was “Not Active”. In addition, the E1/2 in [8] is 440 mV. The compound further showed an MIC in the data set listed under Oryctolagus cuniculus greater than 100 µM.

Consider `CCN(CC)c1nc(NCCNC(=O)c2cc(O)c(O)c(O)c2)c2ccccc2n1.CS(=O)(=O)O`, for which the values for the APA in the data set filed under Canis familiaris [1] and in the data set filed under Canis familiaris [12] were 0 mV and -9 mV, respectively. Besides, the Vmax in the data set filed under Canis familiaris [10] was -32 V s-1; in the data set filed under Canis familiaris [2], -2 V s-1. This compound came in with a concentration at 30 min in [11] of 240 ng/mL. Moreover, the CT in the data set listed under Canis familiaris [12] is recorded as 11 ms; in the data set listed under Canis familiaris [4] it was 7 ms. For the same compound, the response in the data set listed under Homo sapiens [7] was half-maximal at 0.3 µM (EC50). Besides, the values for the APD50 in the data set listed under Canis familiaris [3] and in the data set listed under Canis familiaris [16] were -1 ms and -13 ms, respectively. Moreover, in data set [8], the E1/2 came to 15 mV. Further, in [13], the concentration at 60 min is 1700 ng/mL. In addition, the figures for the APD95 in the data set listed under Canis familiaris [5] and in the data set listed under Canis familiaris [17] were 1 ms and 11 ms, respectively. The compound further had a concentration at 5 h in data set [14] of 1300 ng/mL. Further, the RP in the data set filed under Canis familiaris [15] is on record as -4 mV; in the data set listed under Canis familiaris [6], 0 mV. In the data set listed under Oryctolagus cuniculus, the MIC is 3 µM.

Regarding `CCN(CC)c1nc(NCCNC(=O)c2cc(OC)c(OC)c(OC)c2)c2ccccc2n1.CS(=O)(=O)O`, the MIC in the data set listed under Oryctolagus cuniculus was greater than 100 µM. Also, the EC50 result in the data set filed under Homo sapiens [18] was “Not Active”.

For `CCN(CC)c1nc(NCCNC(=O)c2ccc(F)cc2)c2ccccc2n1.O=C(O)C(=O)O`, the APA in the data set listed under Canis familiaris [1] was -15 mV. Moreover, the Vmax in the data set filed under Canis familiaris [2] was -54 V s-1. In the data set filed under Canis familiaris [3], this compound showed an APD50 of -48 ms. The compound further showed a CT in the data set listed under Canis familiaris [4] of 72 ms. The APD95 in the data set listed under Canis familiaris [5] is given as 1 ms. In the data set listed under Canis familiaris [6], this compound yielded an RP of -3 mV.

`CCN(CC)c1nc(NCCNC(=O)c2ccccc2OC)c2ccccc2n1`: the APA in the data set filed under Canis familiaris [1] was -31 mV. For the same compound, in the data set filed under Canis familiaris [2], the Vmax was -71 V s-1. Moreover, in the data set listed under Canis familiaris [3], the APD50 is listed as -24 ms. In addition, the CT in the data set listed under Canis familiaris [4] was 71 ms. Besides, the APD95 in the data set listed under Canis familiaris [5] turned out to be 15 ms. Besides, in the data set listed under Canis familiaris [6], the RP is reported as -15 mV.

`CCN(CC)c1nc(NCCNC(=O)c2ccccc2)c2ccccc2n1.O=C(O)C(=O)O` came in with an APA in the data set filed under Canis familiaris [1] of -15 mV. The Vmax in the data set filed under Canis familiaris [2] is -43 V s-1. Moreover, in the data set listed under Canis familiaris [3], the APD50 is -34 ms. Besides, the CT in the data set listed under Canis familiaris [4] was determined as 119 ms. The compound also returned an APD95 in the data set listed under Canis familiaris [5] of -2 ms. This compound also showed an RP in the data set listed under Canis familiaris [6] of -3 mV.

For `CCN(CC)c1nc(NCCNC(=O)c2cc(OC)c(OC)c(OC)c2)c2ccccc2n1` [listing 1 of 2 here], the APA in the data set listed under Canis familiaris [1] is -14.4 mV. The compound further had an APD50 in the data set listed under Canis familiaris [3] of -46 ms. The CT in the data set filed under Canis familiaris [4] was 123 ms. In addition, the APD95 in the data set listed under Canis familiaris [5] was -24 ms. The RP in the data set listed under Canis familiaris [6] is -4 mV.

In the data set filed under Canis familiaris [1], `CCN(CC)c1nc(NCCNC(=O)c2ccc(OC)cc2)c2ccccc2n1.O=C(O)C(=O)O` registered an APA of -11 mV. For the same compound, the Vmax in the data set listed under Canis familiaris [2] was -30 V s-1. Moreover, in the data set filed under Canis familiaris [3], the APD50 was -35 ms. This compound came in with a CT in the data set listed under Canis familiaris [4] of 17 ms. In addition, in the data set listed under Canis familiaris [5], the APD95 is reported as -5 ms. The compound also showed an RP in the data set filed under Canis familiaris [6] of -6 mV.

The compound `CCN(CC)c1nc(NCCNC(=O)c2cc(O)c(O)c(OC)c2)c2ccccc2n1` had an EC50 in the data set listed under Homo sapiens [7] of 0.9 µM. The same compound gave an E1/2 in data set [8] of 130 mV. It took 10 µM (≈ 4.25 µg/mL) to inhibit growth in the data set listed under Oryctolagus cuniculus (MIC).

In turn, `CCN(CC)c1nc(NCCNC(=O)c2cc(O)c(OC)c(O)c2)c2ccccc2n1` showed an EC50 in the data set filed under Homo sapiens [7] of 9.5 µM. Besides, in [8], the E1/2 was 320 mV. The same compound returned an MIC in the data set filed under Oryctolagus cuniculus greater than 100 µM.

Turning to `CCN(CC)c1nc(NCCNC(=O)c2cc(OC)c(OC)c(OC)c2)c2ccccc2n1` [listing 2 of 2 here], the Vmax in the data set filed under Canis familiaris [2] is -40 V s-1. Besides, in data set [8], the E1/2 is greater than 600 mV.
